Reference: patent US20260130999A1, “METHODS FOR TREATING CANCERS ASSOCIATED WITH ETBR ACTIVATION” (ENB Therapeutics, Inc., priority 2022, published 2026)

System: 4T-1-HER2 mammary tumors
Experiment: 4T1-HER2 mammary tumors in syngeneic female BALB/c mice treated with anti-HER2 CAR-T, BQ-788-B and anti-PD1
Format: in vivo
From the text: Lentivirus for expression of an anti-HER2 CAR was produced by co-transfecting 293T-17 cells with lentiviral vector pLVX-EF1α-CAR-IRES-ZsGreen1 together with the packaging plasmids pSPAX2 and pMD2.G. Splenocytes from 6-week old female BALB/c mice were isolated by density-gradient centrifugation using a lymphocyte separation medium, Histopaque, activated in 24-well plates at a density of 1×10^6 cell/ml using a mouse T Cell Activation/Expansion Kit for 2-3 days, and then transduced with pLVX-EF1α-CAR-IRES-ZsGreen1 lentivirus at the multiplicity of infection of 20 in the presence of 8 µg/mL polybrene by centrifugation at 1,500×g for 2 hours at 32° C. GFP+ transduced T cells were analyzed by flow cytometry to evaluate the lentiviral transduction efficiency.
4T1-HER2 cells (4×10^6), were resuspended in 0.1 mL PBS and mixed with 0.1 mL Matrigel and injected subcutaneously into the right back region of BALB/c female mice (6-week-old, weighed 17-20 g). Tumor growth was monitored by caliper measurement every three days.
About 14 days after 4T-1-HER2 cell injection, when the tumor diameter reaches about 6 mm in diameter, mice were randomized into eight groups for treatments (6 mice per group).
Blank T or CAR-T cells (1×10^7 cells/mice) were injected intravenously into each mouse on day 11 and day 18 post-tumor inoculation. BQ-788-B ([…]) or PBS was administered via subcutaneous injection into each mouse, starting on day 10, every two or three days for a total of 9 injections. All mice were injected intraperitoneally with 20,000 IU IL-2 once every 2 days from day 14 to […] (Note: day 0 is defined as when 4T1-HER2 cells are injected into mice). Anti-PD1 or isotype control Ig (230 ug/mouse) was injected IP every 4 days, starting on day 11 post tumor inoculation (4 injections total). The eight treatment groups are listed below: • 1) Blank T+PBS+isotype • 2) CAR-T+PBS+isotype • 3) BQ-788-B+Blank T+isotype • 4) Blank T+PBS+anti-PD1 • 5) BQ-788-B+CAR-T+ isotype • 6) CAR-T+PBS+anti-PD1 • 7) BQ-788-B+Blank T+anti-PD1 • 8) BQ-788-B+CAR-T+ anti-PD1
Tumor growth was monitored by caliper measurement every three days. On the 30th day after 4T1-HER2 cell injection, all mice were euthanized by asphyxiation with CO2 followed by cervical dislocation. All tumors were dissected out and photographed before fixation in 10% formalin.

## [2H]C[C@@H]1CCC[C@H](C[2H])N1C(=O)N[C@@H](CC(C)(C)C)C(=O)N[C@H](Cc1cn(C(=O)OC)c2ccccc12)C(=O)N[C@H](CCCC)C(=O)O [BQ-788-B]
BQ-788-B in combination with anti-PD1 and/or CAR-T therapy, compared to control, CAR-T alone, or PD-1 alone, FIG. 4
  tumor volumes at day 29: significantly reduced tumor volumes
BQ-788-B in combination with anti-PD1 and/or CAR-T therapy, compared to control, CAR-T alone, or PD-1 alone, FIGS. 5A and 5B
  tumor weights at day 30: significantly reduced tumor weights
Addition of BQ-788-B
  anti-tumor efficacy of CAR-T cells, of anti-PD-1 antibody therapy and of their combinations: significantly enhances the anti-tumor efficacy
Addition of BQ-788-B in mice treated with either anti-PD1 or CAR-T therapy
  tumor suppression at later time points: enhanced tumor suppression
